Here are results for five compounds from the supplement of paper PMC10307832.

The subject of one assay is PC-3 [JPC-3]. Kind of assay: relative viability (nuclei count vs DMSO), 5 days (fraction); higher = more cells survive. The settings on record: first compound 0.08 µM. The procedure, abridged:
(§1)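 Cells from lung cancer lines were seeded into 1536-well plates and, one day later, dosed by pin tool. Treatments were either a single drug or a fixed dose of an anchor drug with five library-drug doses (not always all listed) in √10 steps. After 5 days, nuclei were stained in a one-step fixation (final 0.05% Triton X-100, 1% formaldehyde, 1 ug/ml Hoechst) and counted on 4× images, and relative viability is the treated-to-vehicle nuclei ratio, as the median of duplicate plates.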
The compound `CCCCCCCCCCCC1=C(O)C(=O)C=C(O)C1=O` [Embelin] + O=C(CCCCCCC(=O)Nc1ccccc1)NO [Vorinostat] (partner 1 µM) displayed a relative viability of 0.614.
Still for that read-out and setting: then `CCCCCCCCCCCC1=C(O)C(=O)C=C(O)C1=O` [Embelin] + O=C(c1cc(Cc2n[nH]c(=O)c3ccccc23)ccc1F)N1CCN(C(=O)C2CC2)CC1 [Olaparib] (partner 8 µM), with 1.12.
The same measure, in the same setting: then `CCCCCCCCCCCC1=C(O)C(=O)C=C(O)C1=O` [Embelin] + Cc1cc(Nc2cc(N3CCN(C)CC3)nc(Sc3ccc(NC(=O)C4CC4)cc3)n2)n[nH]1 [Tozasertib] (partner 0.1 µM), with 0.843.
The compound `CCCCCCCCCCCC1=C(O)C(=O)C=C(O)C1=O` [Embelin] + Nc1ncn([C@H]2C[C@H](O)[C@@H](CO)O2)c(=O)n1 [Decitabine] (partner 2 µM) registered a relative viability of 0.776.
`CCCCCCCCCCCC1=C(O)C(=O)C=C(O)C1=O` [Embelin] + CC(=O)c1c(C)c2cnc(Nc3ccc(N4CCNCC4)cn3)nc2n(C2CCCC2)c1=O [Palbociclib] (partner 0.5 µM) showed a relative viability of 0.518.

The same assay, now with this note: first compound 0.8 µM.
The compound `CCCCCCCCCCCC1=C(O)C(=O)C=C(O)C1=O` [Embelin] + O=C(CCCCCCC(=O)Nc1ccccc1)NO [Vorinostat] (partner 1 µM) came in with a relative viability of 0.95.
With `CCCCCCCCCCCC1=C(O)C(=O)C=C(O)C1=O` [Embelin] + O=C(c1cc(Cc2n[nH]c(=O)c3ccccc23)ccc1F)N1CCN(C(=O)C2CC2)CC1 [Olaparib] (partner 8 µM), the relative viability is 1.17.
On the same count and under the same terms, the result for `CCCCCCCCCCCC1=C(O)C(=O)C=C(O)C1=O` [Embelin] + Cc1cc(Nc2cc(N3CCN(C)CC3)nc(Sc3ccc(NC(=O)C4CC4)cc3)n2)n[nH]1 [Tozasertib] (partner 0.1 µM) reads 0.944.
Same read-out and setting: the result for `CCCCCCCCCCCC1=C(O)C(=O)C=C(O)C1=O` [Embelin] + Nc1ncn([C@H]2C[C@H](O)[C@@H](CO)O2)c(=O)n1 [Decitabine] (partner 2 µM) reads 0.882; that for `CCCCCCCCCCCC1=C(O)C(=O)C=C(O)C1=O` [Embelin] + CC(=O)c1c(C)c2cnc(Nc3ccc(N4CCNCC4)cn3)nc2n(C2CCCC2)c1=O [Palbociclib] (partner 0.5 µM), 0.543.

Staying with this assay, now noted: first compound 2.53 µM.
For the compound `CCCCCCCCCCCC1=C(O)C(=O)C=C(O)C1=O` [Embelin] + O=C(CCCCCCC(=O)Nc1ccccc1)NO [Vorinostat] (partner 1 µM), the relative viability amounted to 0.68.
With `CCCCCCCCCCCC1=C(O)C(=O)C=C(O)C1=O` [Embelin] + O=C(c1cc(Cc2n[nH]c(=O)c3ccccc23)ccc1F)N1CCN(C(=O)C2CC2)CC1 [Olaparib] (partner 8 µM), the relative viability is 1.17.
Same read-out and setting: the result for `CCCCCCCCCCCC1=C(O)C(=O)C=C(O)C1=O` [Embelin] + Cc1cc(Nc2cc(N3CCN(C)CC3)nc(Sc3ccc(NC(=O)C4CC4)cc3)n2)n[nH]1 [Tozasertib] (partner 0.1 µM) reads 0.927; that for `CCCCCCCCCCCC1=C(O)C(=O)C=C(O)C1=O` [Embelin] + Nc1ncn([C@H]2C[C@H](O)[C@@H](CO)O2)c(=O)n1 [Decitabine] (partner 2 µM), 0.919; that for `CCCCCCCCCCCC1=C(O)C(=O)C=C(O)C1=O` [Embelin] + CC(=O)c1c(C)c2cnc(Nc3ccc(N4CCNCC4)cn3)nc2n(C2CCCC2)c1=O [Palbociclib] (partner 0.5 µM), 0.571.

The assay is the same for the next values; noted with them: first compound 8 µM.
In the case of `CCCCCCCCCCCC1=C(O)C(=O)C=C(O)C1=O` [Embelin] + O=C(CCCCCCC(=O)Nc1ccccc1)NO [Vorinostat] (partner 1 µM), the relative viability was found to be 0.604.
For the compound `CCCCCCCCCCCC1=C(O)C(=O)C=C(O)C1=O` [Embelin] + O=C(c1cc(Cc2n[nH]c(=O)c3ccccc23)ccc1F)N1CCN(C(=O)C2CC2)CC1 [Olaparib] (partner 8 µM), the relative viability was determined as 1.07.
With `CCCCCCCCCCCC1=C(O)C(=O)C=C(O)C1=O` [Embelin] + Cc1cc(Nc2cc(N3CCN(C)CC3)nc(Sc3ccc(NC(=O)C4CC4)cc3)n2)n[nH]1 [Tozasertib] (partner 0.1 µM), the relative viability was 0.991.
Same read-out and setting: the result for `CCCCCCCCCCCC1=C(O)C(=O)C=C(O)C1=O` [Embelin] + Nc1ncn([C@H]2C[C@H](O)[C@@H](CO)O2)c(=O)n1 [Decitabine] (partner 2 µM) reads 0.821; that for `CCCCCCCCCCCC1=C(O)C(=O)C=C(O)C1=O` [Embelin] + CC(=O)c1c(C)c2cnc(Nc3ccc(N4CCNCC4)cn3)nc2n(C2CCCC2)c1=O [Palbociclib] (partner 0.5 µM), 0.511.

The subject of a further assay is SK-LU-1. Described as above. The settings on record: first compound 0.08 µM. The procedure, abridged: as §1
As for `CCCCCCCCCCCC1=C(O)C(=O)C=C(O)C1=O` [Embelin] + O=C(CCCCCCC(=O)Nc1ccccc1)NO [Vorinostat] (partner 1 µM), the relative viability amounted to 0.892.
As for `CCCCCCCCCCCC1=C(O)C(=O)C=C(O)C1=O` [Embelin] + O=C(c1cc(Cc2n[nH]c(=O)c3ccccc23)ccc1F)N1CCN(C(=O)C2CC2)CC1 [Olaparib] (partner 8 µM), the relative viability amounted to 0.591.
The compound `CCCCCCCCCCCC1=C(O)C(=O)C=C(O)C1=O` [Embelin] + Cc1cc(Nc2cc(N3CCN(C)CC3)nc(Sc3ccc(NC(=O)C4CC4)cc3)n2)n[nH]1 [Tozasertib] (partner 0.1 µM) returned a relative viability of 0.377.
On the same count and under the same terms, the result for `CCCCCCCCCCCC1=C(O)C(=O)C=C(O)C1=O` [Embelin] + Nc1ncn([C@H]2C[C@H](O)[C@@H](CO)O2)c(=O)n1 [Decitabine] (partner 2 µM) reads 0.617.
Turning to `CCCCCCCCCCCC1=C(O)C(=O)C=C(O)C1=O` [Embelin] + CC(=O)c1c(C)c2cnc(Nc3ccc(N4CCNCC4)cn3)nc2n(C2CCCC2)c1=O [Palbociclib] (partner 0.5 µM), the relative viability turned out to be 0.419.

Staying with this assay, now noted: first compound 0.8 µM.
Regarding `CCCCCCCCCCCC1=C(O)C(=O)C=C(O)C1=O` [Embelin] + O=C(CCCCCCC(=O)Nc1ccccc1)NO [Vorinostat] (partner 1 µM), the relative viability stood at 0.954.
`CCCCCCCCCCCC1=C(O)C(=O)C=C(O)C1=O` [Embelin] + O=C(c1cc(Cc2n[nH]c(=O)c3ccccc23)ccc1F)N1CCN(C(=O)C2CC2)CC1 [Olaparib] (partner 8 µM) gave a relative viability of 0.56.
On to `CCCCCCCCCCCC1=C(O)C(=O)C=C(O)C1=O` [Embelin] + Cc1cc(Nc2cc(N3CCN(C)CC3)nc(Sc3ccc(NC(=O)C4CC4)cc3)n2)n[nH]1 [Tozasertib] (partner 0.1 µM), for which the relative viability came to 0.369.
Still for that read-out and setting: the result for `CCCCCCCCCCCC1=C(O)C(=O)C=C(O)C1=O` [Embelin] + Nc1ncn([C@H]2C[C@H](O)[C@@H](CO)O2)c(=O)n1 [Decitabine] (partner 2 µM) reads 0.683; that for `CCCCCCCCCCCC1=C(O)C(=O)C=C(O)C1=O` [Embelin] + CC(=O)c1c(C)c2cnc(Nc3ccc(N4CCNCC4)cn3)nc2n(C2CCCC2)c1=O [Palbociclib] (partner 0.5 µM), 0.41.
